Data published in paper PMC7304060, “Broad Spectrum Deubiquitinase Inhibition Induces Both Apoptosis and Ferroptosis in Cancer Cells” (Frontiers in Oncology, 2020).
Peptide text beside a SMILES is read from it.

Molecular target: T1, 20S proteasome (chymotrypsin-like peptidase) (Homo sapiens, UniProt P28074)
T1 construct: gene PSMB5; purified human 20S proteasome; chymotrypsin-like site (beta5, with beta6 contact)
T1 sequence (P28074 60-263): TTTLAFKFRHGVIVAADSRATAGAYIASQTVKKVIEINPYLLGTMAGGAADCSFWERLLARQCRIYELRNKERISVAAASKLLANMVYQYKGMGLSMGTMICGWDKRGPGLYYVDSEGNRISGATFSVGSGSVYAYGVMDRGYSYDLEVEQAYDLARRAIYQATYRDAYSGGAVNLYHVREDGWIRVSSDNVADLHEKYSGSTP
T1 sequence (P20618 29-241 partner): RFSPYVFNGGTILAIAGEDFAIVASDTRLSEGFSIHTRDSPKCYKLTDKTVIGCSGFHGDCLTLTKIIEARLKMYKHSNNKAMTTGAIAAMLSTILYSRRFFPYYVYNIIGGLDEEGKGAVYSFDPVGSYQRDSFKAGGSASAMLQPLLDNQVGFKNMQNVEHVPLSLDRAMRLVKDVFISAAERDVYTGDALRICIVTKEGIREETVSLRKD
Assay: fluorogenic peptidase assay
Format: biochemical
Settings: 37 °C; chymotrypsin-like site

Cc1cc(=O)oc2cc(NC(=O)[C@H](Cc3ccc(O)cc3)NC(=O)[C@@H](NC(=O)[C@H](CC(C)C)NC(=O)[C@H](CC(C)C)NC(=O)CCC(=O)O)C(C)C)ccc12 [Suc-LLVY-AMC, Suc-Leu-Leu-Val-Tyr-aminomethylcoumarin] (HELM PEPTIDE1{[O=C(O)CCC(=O)[*:2]].L.L.V.Y.[Cc1cc(=O)oc2cc(N[*:1])ccc12]}$$$$V2.0) was tested, and the fluorogenic peptidase assay was “Chymotrypsin-like activity of the proteasome was assessed with fluorogenic Suc-LLVY-AMC substrate”.
